# According to patent US20220133894A1, “BISPHOSPHONATE-LINKED COMPOUNDS” (OREGON HEALTH & SCIENCE UNIVERSITY, priority 2019, published 2022):
# Tests used:
# [1] = tested on: human prostate and breast cancer; conditions: oral administration, nanomolar concentrations; cited from earlier work
# MEK1/2 and ERK1/2 = experiment: Western blot of MEK1/2 and ERK1/2 phosphorylation in RANKL treated osteoclast cells; format: cell-based, mouse; conditions: 10 μM KBU2046, RANKL treated RAW 267.4 cells
# Raf1 = experiment: Western blot of Raf1 phosphorylation in RANKL treated osteoclast cells; format: cell-based, mouse; conditions: 10 μM KBU2046, RANKL treated RAW 267.4 cells, time-dependent
# Text: To examine this paradigm we first evaluated whether KBU2046 would inhibit Raf1 phosphorylation in osteoclasts. After treatment with RANKL, RAW 267.4 cells differentiate into mature osteoclasts. Upon maturation osteoclast become multinucleated, express tartrate resistant acid phosphatase (TRAP), and have the capacity to form actin rings that create an occluded cavity in which bone is degraded. KBU2046 inhibits phosphorylation of Raf1's activation motif in RANKL treated RAW 267.4 osteoclast cells, and does so in a time-dependent manner (FIG. 4A). In osteoclasts Raf1 is known to phosphorylate MEK1/2, in turn phosphorylating ERK1/2 (Bradley et al., J Cell Biochem 104, 1439-1451 (2008)), with the latter acting to stimulate osteoclast differentiation and bone resorptive activity (He et al., PLoS One 6, e24780 (2011); and Nakamura et al., J Bone Miner Res 18, 1198-1205 (2003)).
# FIG. 4 represents the KBU2046 inhibition of osteoclast function. FIG. 4A compares effects on Raf1 activation. […] RAW 267.4 cells were plated onto Osteo Assay plates, treated with RANKL for 6 days and with KBU2046 (or vehicle for controls) as indicated and bone surface area quantified. Data are the mean±SEM (N=3 replicates) of bone surface area, expressed as the percentage of control cells; * denotes P<0.05 compared to control. […]
# AR = experiment: Subcellular localization of androgen receptor, Western blot of nuclear and cytoplasmic fractions; format: cell-based, human; conditions: LNCaP and VCaP cells, 10 μM KBU2046
# Text: Several considerations warranted a deeper examination of the effect of KBU2046 on AR function. […] Additionally, AR is a client protein of HSP90, AR function requires HSP90-mediated chaperone action, and direct inhibitors of HSP90 decrease client protein expression and inhibit AR function (24-26 Fang et al., J Biol Chem 271, 28697-28702 (1996); Saporita et al., Prostate 67, 509-520 (2007); and Ni et al., Mol Cell Biol 30, 1243-1253 (2010)). […] It is a selective HSP90 activity modulator (SHAM), and selectively modulates client proteins that regulate cell motility. However, the effect of KBU2046 on AR expression and function had not been examined. […]
# LNCaP or VCaP cells cultured in hormone free media were treated with R1881 (R), KBU2046 (46) and/or enzalutamide (E). […] PSA expression was measured by qRT/PCR, normalized to GAPDH and expressed as a percent of control cells (N=3 replicates); * denotes P<0.05 for groups separated by bar. […] Data are the number of viable cells, expressed as % of control (N=3 replicates); * P<0.05 compared to control. […] Data are tumor size, expressed as luminescence intensity. All data are expressed as mean±SEM.
# LNCaP and VCaP cells were pre-incubated in the charcoal-striped medium containing 10 μM KBU2046 or vehicle control for 72 hours. […] Protein was quantified by BCA assay (Thermo-Fisher Scientific, Waltham, Mass.), per manufacturer's instructions. […]
smiles,measurement,setting,value
"O=C1c2ccccc2OCC1c1ccc(F)cc1 (stereo not drawn) [KBU2046, 3-(4-fluorophenyl)chroman-4-one]",bone destruction,[1],decreases
same,metastasis,[1],inhibits
same,survival,[1],prolongs
same,MEK1/2 and ERK1/2 phosphorylation,MEK1/2 and ERK1/2,inhibition
same,phosphorylation of Raf1's activation motif,Raf1,inhibits
same,"AR expression or nuclear localization in response to R1881, and its inhibition by enzalutamide",AR,did not affect
